From patent US20210238176A1, “PESTICIDALLY-ACTIVE BICYCLIC HETEROAROMATIC COMPOUNDS” (SYNGENTA CROP PROTECTION AG, priority 2018, published 2021)

Columns and labels:
Assay type in all cases: in vivo
[1] = system: Myzus persicae (Green Peach Aphid); assay: Myzus persicae systemic activity, pea seedling roots in test solution; settings: 144 h, test rate 24 ppm, systemic via pea seedling roots, 6 days
Procedure: Myzus persicae (Green Peach Aphid). Systemic Activity
Roots of pea seedlings infested with an aphid population of mixed ages were placed directly into aqueous test solutions prepared from 10,000 ppm DMSO stock solutions. The samples were assessed for mortality 6 days after placing seedlings into test solutions.

[2] = system: Myzus persicae (Green Peach Aphid); assay: Myzus persicae intrinsic activity, sucrose solution under Parafilm; settings: 120 h, test rate 12 ppm, 5 days after infestation
Excerpt: Myzus persicae (Green Peach Aphid). Intrinsic Activity
Test compounds prepared from 10,000 ppm DMSO stock solutions were applied by pipette into 24-well microtiter plates and mixed with sucrose solution. The plates were closed with a stretched Parafilm. A plastic stencil with 24 holes was placed onto the plate and infested pea seedlings were placed directly on the Parafilm. The infested plate was closed with a gel blotting paper and another plastic stencil and then turned upside down. The samples were assessed for mortality 5 days after infestation.

[3] = system: Myzus persicae (Green Peach Aphid); assay: Myzus persicae (green peach aphid) feeding/contact activity, sunflower leaf discs; settings: foliar, 144 h, application rate 200 ppm, aphid population of mixed ages, 6 days after infestation
Procedure: Myzus persicae (Green Peach Aphid): Feeding/Contact Activity
Sunflower leaf discs were placed onto agar in a 24-well microtiter plate and sprayed with aqueous test solutions prepared from 10,000 ppm DMSO stock solutions. After drying, the leaf discs were infested with an aphid population of mixed ages. The samples were assessed for mortality 6 days after infestation.

[4] = system: neonicotinoid-resistant Myzus persicae; assay: Myzus persicae (neonicotinoid-resistant) mixed population, contact/feeding, pepper plants; settings: 120 h, neonicotinoid-resistant strain on pepper plants, 5 days after treatment, read-out: control (mortality)
Procedure: Myzus persicae (Neonicotinoid-Resistant, Green Peach Aphid), Mixed Population, Contact/Feeding.
Pepper plants were infested with mixed aged neonicotinoid-resistant aphid population and were treated 1 day after infestation with diluted test solutions in a spray chamber. 5 days after treatment, samples were assessed for mortality.

[5] = system: Nilaparvata lugens (Brown Plant Hopper, metabolic neonicotinoid-resistant); assay: Nilaparvata lugens (metabolic neonicotinoid-resistant) larvicide, feeding/contact, rice plants; settings: 168 h, N3 nymphs, neonicotinoid-resistant strain, 7 days after treatment, read-out: control (mortality and growth regulation)
Procedure: Nilaparvata lugens (Brown Plant Hopper—Metabolic Neonicotinoid-Resistant), Larvicide, Feeding/Contact
Rice plants were treated with the diluted test solutions in a spray chamber. After drying, the plants were infested with ˜20 N3 nymphs. 7 days after the treatment, samples were assessed for mortality and growth regulation.

[6] = system: Bemisia tabaci (Cotton White Fly); assay: Bemisia tabaci (cotton white fly) feeding/contact activity, cotton leaf discs; settings: foliar, 144 h, application rate 200 ppm, adult white flies, 6 days after incubation
Procedure: Bemisia tabaci (Cotton White Fly): Feeding/Contact Activity
Cotton leaf discs were placed on agar in 24-well microtiter plates and sprayed with aqueous test solutions prepared from 10,000 ppm DMSO stock solutions. After drying the leaf discs were infested with adult white flies. The samples were checked for mortality 6 days after incubation.

[7] = system: neonicotinoid-resistant Myzus persicae; assay: Myzus persicae (neonicotinoid-resistant) mixed population, contact, pea seedlings; settings: 120 h, neonicotinoid-resistant strain on pea seedlings, 5 days after treatment, read-out: control (mortality)
Procedure: Myzus persicae (Green Peach Aphid—Neonicotinoid-Resistant), Mixed Population, Contact
Pea seedlings infested with a mixed-aged neonicotinoid-resistant Myzus persicae population were treated with diluted test solutions in a spray chamber and checked for mortality 5 days after treatment.

[8] = system: neonicotinoid-resistant Bemisia tabaci; assay: Bemisia tabaci (metabolic neonicotinoid-resistant) adult, cotton leaf discs; settings: foliar, 96 h, 4 days after infestation, read-out: control (% adult mortality)
Procedure: Bemisia tabaci (Neonicotinoid-Resistant, Cotton Whitefly-Metabolic Neonicotinoid-Resistant), Adult.
5 cm cotton leaf discs were placed upside down in petri dishes poured out with 11 mL 0.8% water agar and applied in a turntable spraying chamber. After drying of the spray deposits, leaf discs were infested with 10 adult neonicotinoid-resistant Bemisia tabaci. Dishes were covered with a fabric filter and sealed with a perforated plastic lid. Evaluation was made 4 days after infestation on % adult mortality.

Cn1ccc(-n2c3cccn(Cc4ccc(Cl)nc4)c-3nc2=O)n1 [Compound A2, 4-[(6-chloro-3-pyridyl)methyl]-1-(1-methylpyrazol-3-yl)imidazo[4,5-b]pyridin-2-one]
≥ 80%: mortality at 24 ppm [1] | mortality at 12 ppm [2] | mortality at 200 ppm [3] | mortality at 200 ppm [4]

Cn1cc(-n2c3cccn(Cc4ccc(Cl)nc4)c-3nc2=O)cn1 [Compound A3, 4-[(6-chloro-3-pyridyl)methyl]-1-(1-methylpyrazol-4-yl)imidazo[4,5-b]pyridin-2-one]
≥ 80%: mortality at 24 ppm [1] | mortality at 200 ppm [5] | mortality at 12 ppm [2] | mortality at 200 ppm [3] | mortality at 200 ppm [6] | mortality at 200 ppm [4]

O=c1nc2n(Cc3ccc(Cl)nc3)cccc-2n1-c1cncc(F)c1 [Compound A26, 4-[(6-chloro-3-pyridyl)methyl]-1-(5-fluoro-3-pyridyl)imidazo[4,5-b]pyridin-2-one]
≥ 80%: mortality at 24 ppm [1] | mortality at 12 ppm [2] | mortality at 200 ppm [3] | mortality at 200 ppm [7]

Cc1ccc(-n2c3cccn(Cc4ccc(Cl)nc4)c-3nc2=O)cc1 [Compound A30, 4-[(6-chloro-3-pyridyl)methyl]-1-(p-tolyl)imidazo[4,5-b]pyridin-2-one]
≥ 80%: mortality at 12 ppm [2] | mortality at 200 ppm [3] | mortality at 200 ppm [7]

O=c1nc2n(Cc3ccc(Cl)nc3)cccc-2n1-c1ccccc1 [Compound A34, 4-[(6-chloro-3-pyridyl)methyl]-1-phenyl-imidazo[4,5-b]pyridin-2-one]
≥ 80%: mortality at 24 ppm [1] | mortality at 200 ppm [5] | mortality at 12 ppm [2] | mortality at 200 ppm [3]

CCn1cc(-n2c3cccn(Cc4ccc(Cl)nc4)c-3nc2=O)cn1 [Compound A63, 4-[(6-chloro-3-pyridyl)methyl]-1-(1-ethylpyrazol-4-yl)imidazo[4,5-b]pyridin-2-one]
≥ 80%: mortality at 12 ppm [2] | mortality at 200 ppm [3] | mortality at 200 ppm [6] | mortality at 200 ppm [8] | mortality at 200 ppm [4]

O=c1nc2n(Cc3ccc(Cl)nc3)cccc-2n1-c1cnn(C(F)(F)F)c1 [Compound A80, 4-[(6-chloro-3-pyridyl)methyl]-1-[1-(trifluoromethyl)pyrazol-4-yl]imidazo[4,5-b]pyridin-2-one]
≥ 80%: mortality at 12 ppm [2] | mortality at 200 ppm [3] | mortality at 200 ppm [6] | mortality at 200 ppm [4]

Cc1c(-n2c3cccn(Cc4ccc(Cl)nc4)c-3nc2=O)cnn1C [Compound A92, 4-[(6-chloro-3-pyridyl)methyl]-1-(1,5-dimethylpyrazol-4-yl)imidazo[4,5-b]pyridin-2-one]
≥ 80%: mortality at 24 ppm [1] | mortality at 200 ppm [5] | mortality at 12 ppm [2] | mortality at 200 ppm [3] | mortality at 200 ppm [6] | mortality at 200 ppm [4]

O=c1nc2n(Cc3ccc(Cl)nc3)cccc-2n1-c1cnn(C2CC2)c1 [Compound A93, 4-[(6-chloro-3-pyridyl)methyl]-1-(1-cyclopropylpyrazol-4-yl)imidazo[4,5-b]pyridin-2-one]
≥ 80%: mortality at 24 ppm [1] | mortality at 200 ppm [5] | mortality at 12 ppm [2] | mortality at 200 ppm [3] | mortality at 200 ppm [6] | mortality at 200 ppm [4]
